We go through 3 molecules from patent US20230172913A1, “COMPOUNDS FOR USE IN THE REACTIVATION OF HIV IN LATENT HIV-INFECTED CELLS” (CENTRE NATIONAL DE LA RECHERCHE SCIENTIFIQUE, priority 2020, published 2023).

Test [1] has as its target T1, Tat-TAR transcription complex (Human immunodeficiency virus type 1 group M subtype B, UniProt P69697).
T1 construct: made in house; host or cells: E. coli
The test is described as follows: Retardation gel, affinity for Tat-TAR complex. In kind it is binding, HIV-1. The protocol: FIG. 1A Delay gel showing the migration of TAR RNA which is free or complexed with the Tat protein (Tat/TAR) in the presence of different concentrations (0 to 120 nM) of the compound (2) (C-2). Tat (400 nM) was incubated with 200 nM of TAR-FAM (WT or Abulge) for 1.5 h in the absence or presence of the compound (2), before separation on a 0.5×TBE 8% acrylamide gel, and acquisition of the fluorescence image. The proteins from the gel were then transferred to a nitrocellulose membrane for Tat visualization by Western blot.
FIG. 1B Quantification of the affinity of the compound (2) (C-2) for the Tat-TAR transcription complex. The Tat-TAR fluorescence band of duplicate gels was quantified and the results are shown in the graph (AU, arbitrary units). n=2. Means+/−SEM. *, p<0.05; ***, p<0.001 compared to the control without the compound (2) (One-way ANOVA).
The affinity of the compound (2) for the Tat-TAR complex was studied by retardation gel. […] The fluorescence of the gel is first visualized with a Chemidoc (Biorad) to detect fluorescein (that is to say TAR). […]

For test [2], the system named is latent T-CD4+ lymphocyte cells from HIV-1 patients. Kind of test: Ex vivo LRA activity on quiescent T-CD4+ cells of HIV-1 patients (p24). In kind it is cell-based, human. The following applies: for LRA efficacy compared with BST-1: 50-100 nM, 18-20 h, p24 in supernatant. On the procedure: FIG. 5 Ex vivo LRA activity on quiescent T-CD4^+ lymphocyte cells of HIV-1 patients. T-CD4 cells were isolated by negative selection before elimination of activated cells (CD25^+, CD69^+, HLA-DR^+) to obtain quiescent cells which were treated with drugs for 18-20 h to avoid reinfections. The LRA activity of the compounds (2) (C-2) and (3) (C-3) was determined by monitoring the viral protein p24 in the supernatant using a commercial ELISA test improved by the use of a luminescent substrate. The detection limit of p24 was 0.2 pg/ml. The response to BST-1 (10 nM) was set at 100% to allow comparison of LRA efficacy between patients (1 point=1 patient).
The ex vivo LRA activity of the compounds according to the invention was tested on latent T-CD4^+ lymphocyte cells from HIV-1 patients. All 8 patients had been under ART treatment for at least 6 months and their viral load was undetectable. Blood samples (20 ml) were taken (agreement with Montpellier University Hospital, Resp: Dr Edouard Tuaillon). After purification of white blood cells on Ficoll-Hypaque, negative selection of T-CD4^+ cells, elimination of activated T-CD4 cells (CD25^+, CD69^+, HLA-DR^+) (Milenyi kits), quiescent cells were treated with the compounds for 18-20 h to avoid reinfections. An assay p24 was then performed using a luminescent reagent (Luminata forte, Millipore) at the end of the Innotest. The sensitivity of the test thus modified is ˜0.2 pg p24/ml. The response to BST-1 varied between patients from 0.2 to 80 pg/ml.

For test [3], the system named is Tat protein. The test is described as follows: Transactivation by Tat in HeLa cells (LTR-firefly/TK-renilla luciferase). Type of test: cell-based, HIV-1. The following applies: for transactivation by extracellular Tat relative to control / transactivation by intracellular Tat relative to negative control: 5 μM compound, HeLa, 24 h; for transactivation by extracellular Tat relative to control: 200 nM Tat extra; for transactivation by intracellular Tat relative to negative control: Tat transfected (Tat intra). On the procedure:
FIG. 2 Evaluation of the transactivating activity of the Tat protein of HeLa cells in the presence of 5 μM of the compound (2) (C-2) or of the compound (3) (C-3). HeLa cells were transfected with plasmids containing LTR-firefly and TK-renilla. In the Tat intra condition, Tat is co-transfected. 18 h after transfection the compounds (2) or (3) were added (5 μM), as well as 200 nM Tat for the Tat extra condition. The cells are lysed for the luciferase tests 24 hours later. The firefly/renilla ratio obtained under control conditions was set at 100. n=2. Means+/−SEM.**, p<0.01, ***, p<0.001 and ****, p<0.0001 compared to the drug-free control (One-way ANOVA).
For this test, the effect of the molecules on transactivation by the extracellular or intracellular Tat protein was monitored by the activity of two luciferases. On the one hand the Firefly luciferase, which is under the control of a viral promoter LTR dependent on the Tat protein, and on the other hand the Renilla luciferase (internal control), under the control of a Thymidine kinase cellular promoter independent of the Tat protein. Transactivation is expressed by the Firefly/Renilla ratio. All plasmids and the procedure have been described (Mol Biol Cell 15 (2004), 2347).
This series of experiments was carried out in the HeLa line. Cells were transfected with PEImax (Nature Comms 9 (2018) 2251). The drugs and Tat (if Tat extra) were added 18 h after transfection as indicated, and left for 24 h before lysing the cells. The luciferases are then assayed using Promega's Dual-Glo kit and a Tecan SPARK 10M plate reader. Extracellular Tat has the property of being able to enter into the cells.

Test [4] deals with T2, Tat protein (86 residues, isolate BH10) (Human immunodeficiency virus type 1 group M subtype B, UniProt P69697).
T2 construct: The recombinant Tat protein (86 residues, isolate BH10); made in house; host or cells: E. coli
Kind of test: Surface plasmon resonance (Biacore) on immobilized Tat. In kind it is binding, HIV-1. On the procedure: (§1) The recombinant Tat protein (86 residues, isolate BH10) was produced in E. coli and purified on heparin-Sepharose then by HPLC as described (Mol Biol Cell 15 (2004), 2347). The compound (2) (MolPort) being fluorescent (λex 320 nm; λem 410 nm), the fluorescence polarization technique (Methods Appl. Fluoresc. (2016) 4(2)) and a PTI fluorimeter were used for the study of the binding of said compound (17 nM) to the Tat protein (1-60 μM) in citrate buffer (50 mM citrate; 150 mM NaCl; pH 7.2). A Kd of the order of 5 μM was measured. An identical value (˜4 μM) was obtained by surface plasmon resonance (SPR; Biacore) by passing the compound (2) in citrate buffer over immobilized Tat on a CMS chip.
For orientation: Surface plasmon resonance follows binding to a sensor surface in real time, without labels.

A further test deals with latent cell line ACH-2. Kind of test: Specificity: HIV-1 production in ACH-2 latent cells with mutated TAR (p24 ELISA). In kind it is cell-based. The following applies: compound (2), SAHA 5 μM, BST-1 10 nM. On the procedure:
Means+/−SEM. ****, p<0.0001 compared to the solvent control (One-way ANOVA).
Once induced, these cells produce infectious virions. For these tests, the viral antigen p24 in the cell supernatant was assayed with the Innotest p24 ELISA kit.
A general note: ELISA stands for enzyme-linked immunosorbent assay.

The test system of test [5] is latent OM10.1 cells (promyeloblasts). Kind of test: LRA activity on OM10.1 latent cells (p24 ELISA). In kind it is cell-based. The following applies: 5 μM, p24 in supernatant. On the procedure: FIG. 3B LRA activity of the compound (2) (C-2) and SAHA at 5 μM on latent OM10.1 cells (promyeloblasts). These latent cells, after induction, produce infectious viruses which are assayed in the supernatant by ELISA p24. n=2. Means+/−SEM.*, p<0.05 and ***, p<0.001 compared to the control medium alone (One-way ANOVA).
The results for the compound (2) were confirmed using another latent cell line, OM10.1 (promyeloblasts; source NARP; PLoS Pathog. 11 (2015) 1) which produces infectious HIV after induction. It was assayed by the viral antigen p24 (HIV-1 capsid protein) in the supernatant using an ELISA kit (Innotest).

For test [6], the system named is Tat protein. Kind of test: Transactivation test on primary T-CD4 cells. Type of test: cell-based, HIV-1. The following applies: primary T-CD4 cells transfected with Tat, 24 h. The protocol:
FIG. 6 Transactivation test on primary T-CD4 cells. Primary T-CD4 cells were isolated from the blood of healthy donors, then they were transfected with plasmids containing Tat, LTR-firefly and TK-renilla. 18 h after transfection different concentrations of the compound (2) (C-2) were added, and the lysed cells for the luciferase tests 24 h later. n=3. Means+/−SEM. *, p<0.05 and ***, p<0.001 compared to the control without C-2 (One-way ANOVA).
To verify this point, a transactivation test was carried out with primary T-CD4 cells. […] The need to use doses 100 times higher on cancerous cells (that is to say 5-10 μM) is due to the cancerization process of these cells.

The target of test [7] is T2, Tat protein (86 residues, isolate BH10). Kind of test: Fluorescence polarization binding of compound to recombinant Tat protein. Also on record: species or system HIV-1. On the procedure: as §1
For orientation: Polarisation of emitted light reports the rotation of a fluorescent probe.

The next test concerns J-Lat 9.2 latent cells. Kind of test: LRA activity on J-Lat 9.2 latent cells (GFP, FACS). Type of test: cell-based. The following applies: 5 μM, 24 h, GFP fluorescence by FACS. On the procedure:
FIG. 3A LRA activity of the compounds (1), (2) (3) (C-1, C-2, C-3) and SAHA (histone deacetylase inhibitor) at 5 μM on J-Lat 9.2 latent cells (derived from Jurkats). J-Lat 9.2 have a complete (single) HIV genome with a non-functional Env gene, and a GFP instead of Nef (Symons, J., and al., Retrovirology, 2017. 14(1): p. 2; Jordan, A., and al., The EMBO journal, 2003. 22(8): p. 1868-77). The activation of these viruses can be followed by the production of GFP and therefore by the detection of green fluorescence in the cells, followed by FACS. n=3. Means+/−SEM.**, p<0.01, compared to the drug-free control (One-way ANOVA).
To test the LRA effect of the molecules, JLat9.2 cells were first used. This latent cell line (source: NIH AIDS Reagents Program, NARP) derived from Jurkat cells contains an HIV genome with an inactivated Env gene and a GFP instead of Nef (Retrovirology, 14 (2017) 2). The lifting of latency is accompanied by the emission of fluorescence from GFP. The cells were treated with molecules at 5 μM for 24 h before analysis of the cells with a FACScalibur to determine the % of cells emitting fluorescence. It can be seen in FIG. 3A that the compound (2) at 5 μM has a significant LRA activity, of the order of 20-30% of that of SAHA.

Where “and” joins values, the source holds several entries; their conditions need not be identical. Identical values can stand only once.

In general, Kd refers to the concentration at which binding is half-saturated.

T1 sequence (P69697 whole entry, one chain of several): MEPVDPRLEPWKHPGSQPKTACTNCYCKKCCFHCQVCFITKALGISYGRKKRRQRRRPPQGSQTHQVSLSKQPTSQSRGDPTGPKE
T2 sequence (P69697 whole entry): as the sequence (P69697 whole entry, one chain of several) above

Turning to `COc1cc(C(=O)Nc2cc(-c3nc4ccccc4[nH]3)ccc2C)ccc1OCc1ccc(Cl)cc1` [Compound (2), N-[5-(1H-1,3-benzodiazol-2-yl)-2-methylphenyl]-4-[(4-chlorophenyl)methoxy]-3-methoxybenzamide], the “concentration stabilizing the Tat-TAR transcription complex” value in test [1] is 50 to 100 nM and 80 nM. In addition, the Kd was about 0.08 µM in test [1] (retardation gel, 400 nM Tat, 200 nM TAR, 1.5 h at 25° C.); about 4 µM in test [4]; about 5 µM in test [7]. The “LRA efficacy compared with BST-1” value in test [2] was “at least as effective as BST-1”. Moreover, the “concentration sufficient for the LRA effect ex vivo” value in test [2] (latent primary cells) was 50 to 100 nM and 50 nM. Further, the “transactivation by extracellular Tat relative to control” value with Tat protein [3] turned out to be 60 times. The “transactivation by intracellular Tat relative to negative control” value in the test with Tat protein [3] is reported as 3.9 times. In addition, the “effective concentrations on laboratory cell lines” value in the test with Tat protein [3] (all the tests on laboratory cell lines (HeLa and That)) is about 5 µM. Moreover, in the test on latent cell line ACH-2, the “induction of HIV-1 production (p24)” value is given as “incapable of inducing the production of HIV-1”. Also, the “LRA activity relative to that of SAHA” value in test [5] is given as about 40%. Besides, the “concentration most effective in activating transactivation by Tat” value in the test with Tat protein [6] came to 30 nM.

Regarding `COc1ccc(-c2nn3ccnc3s2)cc1NC(=O)c1ccc(OCc2ccccc2)cc1` [(1), 4-(benzyloxy)-N-(5-{imidazo[2,1-b][1,3,4]thiadiazol-2-yl}-2-methoxyphenyl)benzamide], in the test with J-Lat 9.2 latent cells, the “LRA activity (in words)” value is reported as “significant activity”.

Take `O=C(Nc1ccc(-c2nc3ccccc3[nH]2)cc1)c1cccc(OCc2ccccc2)c1` [(3), N-[4-(1H-1,3-benzodiazol-2-yl)phenyl]-3-(benzyloxy)benzamide]: the “LRA activity (in words)” value in the test with J-Lat 9.2 latent cells is “close to that of SAHA”. In addition, the “LRA efficacy compared with BST-1” value in [2] is listed as “at least as effective as BST-1”. Further, in the test on Tat protein [3], the “transactivation by extracellular Tat relative to control” value was 108 times and the “transactivation by intracellular Tat relative to negative control” value was 9 times.
